Laboratory results taken from the NIST ThermoML archive (doi:10.1021/acs.jced.9b00078).

Details: Liquid, Other PVT measurement

CCCCCCCCCCCCCCCC [hexadecane]
mass density [kg/m3]
Details	10000 kPa	20000 kPa	30000 kPa	40000 kPa	50000 kPa
298.2 K	775.86	782.89	788.75	793.81	799.18
303.2 K	773.66	779.38	785.01	790.38	795.64
313.2 K	764.59	773.09	778.81	784.36	789.46
323.2 K	759.8	766.48	773.19	778.83	784.38
333.2 K	753.38	760.44	767.3	773.53	779.1
348.2 K	744.11	751.32	758.67	765.1	770.98
353.2 K	740.03	748.27	755.72	762.19	768.11
373.2 K	727.81	736.02	744.18	751.02	757.42
393.2 K	713.25	723.64	732.3	739.4	746.41
413.2 K	700.27	711.23	720.49	728.42	735.85
423.2 K	694.3	705.01	714.62	722.88	730.73
433.2 K	687.01	698.74	708.69	717.4	725.14
453.2 K	674.02	686.53	696.77	706.13	714.59
463.2 K	669.34	680.32	690.8	700.49	709.18
473.2 K	660.45	673.95	685.23	695.19	704.05
